Experimental data taken from PubChem BioAssay AID180 (DTP/NCI, 2004).
Values joined by “and” are separate entries in the source; they are usually repeats but may differ in a detail not shown here. Identical values can stand only once.

Test system: BDF1 mice, Adenocarcinoma 755 s.c., tumor weight T/C
Test: NCI In Vivo Anticancer Drug Screen. Data for tumor model Adenocarcinoma 755 (subcutaneous) in B6D2F1 (BDF1) mice
Settings: endpoint: mean tumor weight, higher = larger tumour
Protocol: The antitumor activity of compounds was measured in mice bearing transplantable tumors. Survival or tumor size were measured and the results are expressed as the measurement made in the treated group (T) divided by the measurement made in the vehicle treated control group (C). The tumor model used in this assay is Adenocarcinoma 755 (subcutaneous) in B6D2F1 (BDF1) mice

[1] = dose: 15.0 mg/kg/injection, schedule: Q01DX011 (ip), vehicle: methylcellulose (MC)
[2] = dose: 31.0 mg/kg/injection, schedule: Q01DX011 (ip), vehicle: methylcellulose (MC)
[3] = dose: 62.0 mg/kg/injection, schedule: Q01DX011 (ip), vehicle: methylcellulose (MC)

Q: Which results are given for `Nc1nc(=S)c2ncn(C3OC(CO)C(O)C3O)c2[nH]1` (configuration not stated)?
A: T/C (dose: 0.03 mg/kg/injection, schedule: Q01DX011 (ip), vehicle: carboxymethylcellulose (CMC)): 43 % of control; T/C (dose: 0.07 mg/kg/injection, schedule: Q01DX011 (ip), vehicle: carboxymethylcellulose (CMC)): 90 % of control; T/C (dose: 0.13 mg/kg/injection, schedule: Q01DX011 (ip), vehicle: carboxymethylcellulose (CMC)): 81 % of control; T/C (dose: 0.5 mg/kg/injection, schedule: Q01DX011 (ip), vehicle: carboxymethylcellulose (CMC)): 29 % of control and 37 % of control; T/C (dose: 1.0 mg/kg/injection, schedule: Q01DX011 (ip), vehicle: carboxymethylcellulose (CMC)): 6 % of control and 7 % of control; T/C (dose: 1.5 mg/kg/injection, schedule: Q01DX011 (ip), vehicle: carboxymethylcellulose (CMC)): 4 % of control; T/C (dose: 1.5 mg/kg/injection, schedule: Q01DX011 (ip), vehicle: methylcellulose (MC)): 2 % of control; T/C (dose: 2.0 mg/kg/injection, schedule: Q01DX011 (ip), vehicle: carboxymethylcellulose (CMC)): 4 % of control; T/C (dose: 3.0 mg/kg/injection, schedule: Q01DX011 (ip), vehicle: carboxymethylcellulose (CMC)): 3 % of control; T/C (dose: 3.0 mg/kg/injection, schedule: Q01DX011 (ip), vehicle: methylcellulose (MC)): 1 % of control

Q: Which results are given for `O=c1[nH]cnc2c1ncn2C1CCCCC1`?
A: T/C (dose: 23.0 mg/kg/injection, schedule: Q01DX011 (ip), vehicle: carboxymethylcellulose (CMC)): 93 % of control and 111 % of control; T/C (dose: 23.1 mg/kg/injection, schedule: Q01DX011 (ip), vehicle: carboxymethylcellulose (CMC)): 86 % of control; T/C (dose: 23.12 mg/kg/injection, schedule: Q01DX011 (ip), vehicle: carboxymethylcellulose (CMC)): 74 % of control; T/C (dose: 46.0 mg/kg/injection, schedule: Q01DX011 (ip), vehicle: carboxymethylcellulose (CMC)): 74 % of control and 85 % of control; T/C (dose: 46.2 mg/kg/injection, schedule: Q01DX011 (ip), vehicle: carboxymethylcellulose (CMC)): 118 % of control; T/C (dose: 46.25 mg/kg/injection, schedule: Q01DX011 (ip), vehicle: carboxymethylcellulose (CMC)): 117 % of control; T/C (dose: 46.25 mg/kg/injection, schedule: Q01DX011 (oral), vehicle: carboxymethylcellulose (CMC)): 104 % of control; T/C (dose: 92.5 mg/kg/injection, schedule: Q01DX011 (ip), vehicle: carboxymethylcellulose (CMC)): 90 % of control and 99 % of control and 108 % of control; T/C (dose: 92.5 mg/kg/injection, schedule: Q01DX011 (oral), vehicle: carboxymethylcellulose (CMC)): 118 % of control; T/C (dose: 185.0 mg/kg/injection, schedule: Q01DX011 (oral), vehicle: carboxymethylcellulose (CMC)): 114 % of control; T/C (dose: 370.0 mg/kg/injection, schedule: Q01DX011 (oral), vehicle: carboxymethylcellulose (CMC)): 79 % of control

Q: `CCCNc1cc(=O)[nH]c(N)n1` was tested. Which T/C (dose: 55.0 mg/kg/injection, schedule: Q01DX011 (ip), vehicle: methylcellulose (MC)) did it give?
A: 110 % of control

Q: What about the T/C (dose: 165.0 mg/kg/injection, schedule: Q01DX011 (ip), vehicle: methylcellulose (MC)) of the same compound?
A: 41 % of control

Q: How did the T/C (dose: 0.7 mg/kg/injection, schedule: Q01DX011 (sc), vehicle: steriod suspending solution) turn out when `CC1(C)O[C@@H]2C[C@H]3[C@@H]4CCC5=CC(=O)C=C[C@]5(C)[C@@]4(F)[C@@H](O)C[C@]3(C)[C@]2(C(=O)CO)O1` was run?
A: 38 % of control

Q: And the T/C (dose: 3.0 mg/kg/injection, schedule: Q01DX011 (sc), vehicle: steriod suspending solution)?
A: 53 % of control

Q: And the T/C (dose: 6.0 mg/kg/injection, schedule: Q01DX011 (sc), vehicle: steriod suspending solution)?
A: 40 % of control

Q: Which T/C (dose: 25.0 mg/kg/injection, schedule: Q01DX011 (ip), vehicle: methylcellulose (MC)) does the source give for `CC1CCCN(/N=N/c2nc3c([nH]2)c(=O)n(C)c(=O)n3C)C1` (configuration not stated) here?
A: 66 % of control

Q: And the T/C (dose: 75.0 mg/kg/injection, schedule: Q01DX011 (ip), vehicle: methylcellulose (MC))?
A: 61 % of control

Q: Which T/C (dose: 31.0 mg/kg/injection, schedule: Q01DX011 (sc), vehicle: steriod suspending solution) does the source give for `CC(=O)Oc1ccc2c(c1)CC[C@@H]1[C@@H]2CC[C@@]2(C)[C@H]1CC[C@]2(C)OC(C)=O` here?
A: 76 % of control

Q: What about the T/C (dose: 62.5 mg/kg/injection, schedule: Q01DX011 (sc), vehicle: steriod suspending solution) of the same compound?
A: 64 % of control

Q: What about the T/C (dose: 125.0 mg/kg/injection, schedule: Q01DX011 (sc), vehicle: steriod suspending solution) of the same compound?
A: 71 % of control

Q: And the T/C (dose: 250.0 mg/kg/injection, schedule: Q01DX011 (sc), vehicle: steriod suspending solution)?
A: 44 % of control

Q: What does the source list for `Cc1cnc(SCc2ccc(Cl)cc2Cl)nc1Nc1ccc(Cl)c(Cl)c1`?
A: T/C [1]: 74 % of control; T/C [2]: 97 % of control; T/C [3]: 69 % of control

Q: What does the source list for `O=c1[nH]cnc2c1ncn2C1CCCO1` (configuration not stated)?
A: T/C (dose: 30.0 mg/kg/injection, schedule: Q01DX011 (ip), vehicle: carboxymethylcellulose (CMC)): 80 % of control; T/C (dose: 60.0 mg/kg/injection, schedule: Q01DX011 (ip), vehicle: carboxymethylcellulose (CMC)): 105 % of control; T/C (dose: 120.0 mg/kg/injection, schedule: Q01DX011 (ip), vehicle: carboxymethylcellulose (CMC)): 106 % of control; T/C (dose: 240.0 mg/kg/injection, schedule: Q01DX011 (ip), vehicle: carboxymethylcellulose (CMC)): 75 % of control

Q: What does the source list for `CC1CN(Cc2ccccc2)C(=S)N(c2ccccc2)C1=O` (configuration not stated)?
A: T/C [1]: 87 % of control; T/C [2]: 74 % of control; T/C [3]: 96 % of control; T/C (dose: 125.0 mg/kg/injection, schedule: Q01DX011 (ip), vehicle: methylcellulose (MC)): 97 % of control; T/C (dose: 250.0 mg/kg/injection, schedule: Q01DX011 (ip), vehicle: methylcellulose (MC)): 82 % of control

Q: How did the T/C (dose: 4.0 mg/kg/injection, schedule: Q01DX011 (ip), vehicle: methylcellulose (MC)) turn out when `S=c1c2[nH]cnc2ncn1CCSC1=NC=NC2=NC=NC21` (configuration not stated) was run?
A: 61 % of control

Q: And the T/C (dose: 8.0 mg/kg/injection, schedule: Q01DX011 (ip), vehicle: methylcellulose (MC))?
A: 71 % of control

Q: What about the T/C (dose: 16.0 mg/kg/injection, schedule: Q01DX011 (ip), vehicle: methylcellulose (MC)) of the same compound?
A: 19 % of control

Q: For `Nc1nc(N)c2[nH]cnc2n1`, which T/C (dose: 17.49 mg/kg/injection, schedule: Q01DX011 (ip), vehicle: carboxymethylcellulose (CMC)) is on record?
A: 94 % of control

Q: And the T/C (dose: 17.62 mg/kg/injection, schedule: Q01DX011 (ip), vehicle: carboxymethylcellulose (CMC))?
A: 114 % of control

Q: And the T/C (dose: 34.98 mg/kg/injection, schedule: Q01DX011 (ip), vehicle: carboxymethylcellulose (CMC))?
A: 93 % of control

Q: What about the T/C (dose: 35.25 mg/kg/injection, schedule: Q01DX011 (ip), vehicle: carboxymethylcellulose (CMC)) of the same compound?
A: 91 % of control

Q: What about the T/C (dose: 69.95 mg/kg/injection, schedule: Q01DX011 (ip), vehicle: carboxymethylcellulose (CMC)) of the same compound?
A: 103 % of control

Q: What about the T/C (dose: 70.5 mg/kg/injection, schedule: Q01DX011 (ip), vehicle: carboxymethylcellulose (CMC)) of the same compound?
A: 108 % of control

Q: And the T/C (dose: 141.0 mg/kg/injection, schedule: Q01DX011 (ip), vehicle: carboxymethylcellulose (CMC))?
A: 47 % of control

Q: With `CC1(O)CCC2C3CCC4=CC(=O)CCC4C3CCC21C` (configuration not stated) as the compound, how does the T/C (dose: 50.0 mg/kg/injection, schedule: Q01DX011 (sc), vehicle: steriod suspending solution) read?
A: 93 % of control

Q: What about the T/C (dose: 100.0 mg/kg/injection, schedule: Q01DX011 (sc), vehicle: steriod suspending solution) of the same compound?
A: 76 % of control

Q: And the T/C (dose: 200.0 mg/kg/injection, schedule: Q01DX011 (sc), vehicle: steriod suspending solution)?
A: 59 % of control

Q: And the T/C (dose: 400.0 mg/kg/injection, schedule: Q01DX011 (sc), vehicle: steriod suspending solution)?
A: 51 % of control

Q: What about the T/C (dose: 500.0 mg/kg/injection, schedule: Q01DX011 (sc), vehicle: steriod suspending solution) of the same compound?
A: 47 % of control

Q: What about the T/C (dose: 600.0 mg/kg/injection, schedule: Q01DX011 (sc), vehicle: steriod suspending solution) of the same compound?
A: 38 % of control

Q: How did the T/C (dose: 2.5 mg/kg/injection, schedule: Q01DX011 (ip), vehicle: carboxymethylcellulose (CMC)) turn out when `CCSc1ncnc2nc[nH]c12` was run?
A: 40 % of control

Q: What about the T/C (dose: 100.0 mg/kg/injection, schedule: Q01DX011 (ip), vehicle: carboxymethylcellulose (CMC)) of the same compound?
A: 1 % of control
